Starred links: 1 amine or outer side, 2 acyl side, 3 side chain; linkers in the order of their positions; H or OH if unused. Positions of bridges follow the written chain, without caps; N, C: chain ends. Non-standard residues stand in square brackets, D forms with d. Residues, ends and D or L forms follow the SMILES beside them. *: point of attachment. Trp(1-CH2CO2Me) = COC(=O)Cn1cc(C[C@H](N)C(=O)O)c2ccccc21; Trp(1-CH2COOH) = N[C@@H](Cc1cn(CC(=O)O)c2ccccc12)C(=O)O; Hyp = O=C(O)[C@@H]1C[C@@H](O)CN1; X5 = O=C(C(=O)*)N1CCc2ccccc2C1; Methoxyoxalyl = COC(=O)C(=O)*; Oxalyl = O=C(C(=O)[*:2])[*:1]; X3 = O=C(NCc1ccc(F)cc1)C(=O)*; X9 = O=C(Nc1ccc(F)cc1F)C(=O)*; NMeNle = CCCC[C@H](NC)C(=O)O; X10 = Cc1cc(NC(=O)C(=O)*)no1; X2 = CCc1nnc(NC(=O)C(=O)*)s1; X6 = CN1CCN(C(=O)C(=O)*)CC1; X1 = O=C(Oc1ccccc1)C(=O)*; NMeA = CN[C@@H](C)C(=O)O; Dab = NCC[C@H](N)C(=O)O; Dap = NC[C@H](N)C(=O)O; Oxamoyl = NC(=O)C(=O)*
The compounds below were run against T1, PD-1/PD-L1 (Homo sapiens, UniProt Q9NZQ7) (assay: PD-1/PD-L1 Homogenous Time-Resolved Fluorescence (HTRF) binding assay). Settings: PD-L1-His 10 nM final, PD-1-Ig 20 nM final; inhibitors pre-incubated with PD-L1-His for 15 m.
T1 construct: TVMV protease site linker (C); made in house; host or cells: HEK293T cells
T1 sequence (Q9NZQ7 18-239): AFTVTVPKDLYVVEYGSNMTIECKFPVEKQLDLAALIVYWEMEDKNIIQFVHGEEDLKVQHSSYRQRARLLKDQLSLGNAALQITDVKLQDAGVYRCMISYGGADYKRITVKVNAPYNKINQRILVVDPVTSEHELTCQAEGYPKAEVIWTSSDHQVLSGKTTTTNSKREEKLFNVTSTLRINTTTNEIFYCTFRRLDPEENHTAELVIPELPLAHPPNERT
Text: The ability of the compounds of formula (I) to bind to PD-L1 was investigated using a PD-1/PD-L1 Homogenous Time-Resolved Fluorescence (HTRF) binding assay.
Homogenous Time-Resolved Fluorescence (HTRF) Binding Assay
The interaction of PD-1 and PD-L1 can be assessed using soluble, purified preparations of the extracellular domains of the two proteins. The PD-1 and PD-L1 protein extracellular domains were expressed as fusion proteins with detection tags, for PD-1, the tag was the Fc portion of Immunoglobulin (PD-1-Ig) and for PD-L1 it was the 6 histidine motif (PD-L1-His). All binding studies were performed in an HTRF assay buffer consisting of dPBS supplemented with 0.1% […] bovine serum albumin and 0.05% (v/v) Tween-20. For the h/PD-L1-His binding assay, inhibitors were pre-incubated with PD-L1-His (10 nM final) for 15 m in 4 μl of assay buffer, followed by addition of PD-1-Ig (20 nM final) in 1 μl of assay buffer and further incubation for 15m. HTRF detection was achieved using europium crypate-labeled anti-Ig (1 nM final) and allophycocyanin (APC) labeled anti-His (20 nM final). Antibodies were diluted in HTRF detection buffer and 5 μl was dispensed on top of the binding reaction. The reaction mixture was allowed to equilibrate for 30 minutes and the resulting signal (665 nm/620 nm ratio) was obtained using an EnVision fluorometer. Additional binding assays were established between the human proteins PD-1-Ig/PD-L2-His (20 & 5 nM, respectively) and CD80-His/PD-L1-Ig (100 & 10 nM, respectively).
Recombinant Proteins: Human PD-1 (25-167) with a C-terminal human Fc domain of immunoglobulin G (Ig) epitope tag [hPD-1 (25-167)-3S-IG] and human PD-L1 (18-239) with a C-terminal His epitope tag [hPD-L1(18-239)-TVMV-His] were expressed in HEK293T cells and purified sequentially by ProteinA affinity chromatography and size exclusion chromatography. Human PD-L2-His and CD80-His was obtained through commercial sources.
Table 1 lists the IC50 values for representative examples of this disclosure measured in the PD-1/PD-L1 Homogenous Time-Resolved Fluorescence (HTRF) binding assay.
Work on `CCCC[C@H]1C(=O)N(C)[C@@H](CCCC)C(=O)N[C@@H](CC(C)C)C(=O)N[C@H](C(=O)NCC(N)=O)CSCC(=O)N[C@@H](Cc2ccc(O)cc2)C(=O)N(C)[C@@H](C)C(=O)N[C@@H](CC(N)=O)C(=O)N2CCC[C@H]2C(=O)N[C@@H](CNC(=O)C(=O)O)C(=O)N[C@@H](CC(C)C)C(=O)N2C[C@H](O)C[C@H]2C(=O)N[C@@H](Cc2c[nH]c3ccccc23)C(=O)N[C@@H](CCNC(=O)C(=O)O)C(=O)N[C@@H](Cc2cn(CC(=O)OC)c3ccccc23)C(=O)N1C` [Compound 5001] ({CH2CO}-Y[NMeA]NP[Dap](Oxalyl)L[Hyp]W[Dab](Oxalyl)[Trp(1-CH2CO2Me)][NMeNle][NMeNle]LCG-NH2; thioether N-14) yielded an IC50 of 2.6 nM.
For `CCCC[C@H]1C(=O)N(C)[C@@H](CCCC)C(=O)N[C@@H](CC(C)C)C(=O)N[C@H](C(=O)NCC(N)=O)CSCC(=O)N[C@@H](Cc2ccc(O)cc2)C(=O)N(C)[C@@H](C)C(=O)N[C@@H](CC(N)=O)C(=O)N2CCC[C@H]2C(=O)N[C@@H](CNC(=O)C(=O)Nc2cc(C)on2)C(=O)N[C@@H](CC(C)C)C(=O)N2C[C@H](O)C[C@H]2C(=O)N[C@@H](Cc2c[nH]c3ccccc23)C(=O)N[C@@H](CCNC(=O)C(=O)Nc2cc(C)on2)C(=O)N[C@@H](Cc2cn(CC(=O)OC)c3ccccc23)C(=O)N1C` [Compound 2004] ({CH2CO}-Y[NMeA]NP[Dap](X10)L[Hyp]W[Dab](X10)[Trp(1-CH2CO2Me)][NMeNle][NMeNle]LCG-NH2; thioether N-14), the IC50 was 3 nM.
For `CCCC[C@H]1C(=O)N(C)[C@@H](CCCC)C(=O)N[C@@H](CC(C)C)C(=O)N[C@H](C(=O)NCC(N)=O)CSCC(=O)N[C@@H](Cc2ccc(O)cc2)C(=O)N(C)[C@@H](C)C(=O)N[C@@H](CC(N)=O)C(=O)N2CCC[C@H]2C(=O)N[C@@H](CNC(=O)C(=O)N2CCc3ccccc3C2)C(=O)N[C@@H](CC(C)C)C(=O)N2C[C@H](O)C[C@H]2C(=O)N[C@@H](Cc2c[nH]c3ccccc23)C(=O)N[C@@H](CCNC(=O)C(=O)N2CCc3ccccc3C2)C(=O)N[C@@H](Cc2cn(CC(=O)OC)c3ccccc23)C(=O)N1C` [Compound 2001] ({CH2CO}-Y[NMeA]NP[Dap](X5)L[Hyp]W[Dab](X5)[Trp(1-CH2CO2Me)][NMeNle][NMeNle]LCG-NH2; thioether N-14), the IC50 was 3.4 nM.
For `CCCC[C@H]1C(=O)N(C)[C@@H](CCCC)C(=O)N[C@@H](CC(C)C)C(=O)N[C@H](C(=O)NCC(N)=O)CSCC(=O)N[C@@H](Cc2ccc(O)cc2)C(=O)N(C)[C@@H](C)C(=O)N[C@@H](CC(N)=O)C(=O)N2CCC[C@H]2C(=O)N[C@@H](CNC(=O)C(=O)Nc2nnc(CC)s2)C(=O)N[C@@H](CC(C)C)C(=O)N2C[C@H](O)C[C@H]2C(=O)N[C@@H](Cc2c[nH]c3ccccc23)C(=O)N[C@@H](CCNC(=O)C(=O)Nc2nnc(CC)s2)C(=O)N[C@@H](Cc2cn(CC(=O)OC)c3ccccc23)C(=O)N1C` [Compound 2008] ({CH2CO}-Y[NMeA]NP[Dap](X2)L[Hyp]W[Dab](X2)[Trp(1-CH2CO2Me)][NMeNle][NMeNle]LCG-NH2; thioether N-14), the IC50 was 3.2 nM.
`CCCC[C@H]1C(=O)N(C)[C@@H](CCCC)C(=O)N[C@@H](CC(C)C)C(=O)N[C@H](C(=O)NCC(N)=O)CSCC(=O)N[C@@H](Cc2ccc(O)cc2)C(=O)N(C)[C@@H](C)C(=O)N[C@@H](CC(N)=O)C(=O)N2CCC[C@H]2C(=O)N[C@@H](CNC(=O)C(=O)N2CCN(C)CC2)C(=O)N[C@@H](CC(C)C)C(=O)N2C[C@H](O)C[C@H]2C(=O)N[C@@H](Cc2c[nH]c3ccccc23)C(=O)N[C@@H](CCNC(=O)C(=O)N2CCN(C)CC2)C(=O)N[C@@H](Cc2cn(CC(=O)OC)c3ccccc23)C(=O)N1C` [Compound 2007] ({CH2CO}-Y[NMeA]NP[Dap](X6)L[Hyp]W[Dab](X6)[Trp(1-CH2CO2Me)][NMeNle][NMeNle]LCG-NH2; thioether N-14) was tested, and the IC50 was 9.1 nM.
With `CCCC[C@H]1C(=O)N(C)[C@@H](CCCC)C(=O)N[C@@H](CC(C)C)C(=O)N[C@H](C(=O)NCC(N)=O)CSCC(=O)N[C@@H](Cc2ccc(O)cc2)C(=O)N(C)[C@@H](C)C(=O)N[C@@H](CC(N)=O)C(=O)N2CCC[C@H]2C(=O)N[C@@H](CNC(=O)C(=O)Oc2ccccc2)C(=O)N[C@@H](CC(C)C)C(=O)N2C[C@H](O)C[C@H]2C(=O)N[C@@H](Cc2c[nH]c3ccccc23)C(=O)N[C@@H](CCNC(=O)C(=O)Oc2ccccc2)C(=O)N[C@@H](Cc2cn(CC(=O)O)c3ccccc23)C(=O)N1C` [Compound 1001] ({CH2CO}-Y[NMeA]NP[Dap](X1)L[Hyp]W[Dab](X1)[Trp(1-CH2COOH)][NMeNle][NMeNle]LCG-NH2; thioether N-14) the IC50 was 5.4 nM.
`CCCC[C@H]1C(=O)N(C)[C@@H](CCCC)C(=O)N[C@@H](CC(C)C)C(=O)N[C@H](C(=O)NCC(N)=O)CSCC(=O)N[C@@H](Cc2ccc(O)cc2)C(=O)N(C)[C@@H](C)C(=O)N[C@@H](CC(N)=O)C(=O)N2CCC[C@H]2C(=O)N[C@@H](CNC(=O)C(=O)Nc2ccc(F)cc2F)C(=O)N[C@@H](CC(C)C)C(=O)N2C[C@H](O)C[C@H]2C(=O)N[C@@H](Cc2c[nH]c3ccccc23)C(=O)N[C@@H](CCNC(=O)C(=O)Nc2ccc(F)cc2F)C(=O)N[C@@H](Cc2cn(CC(=O)OC)c3ccccc23)C(=O)N1C` [Compound 2010] ({CH2CO}-Y[NMeA]NP[Dap](X9)L[Hyp]W[Dab](X9)[Trp(1-CH2CO2Me)][NMeNle][NMeNle]LCG-NH2; thioether N-14) was tested, and the IC50 was 1.8 nM.
In the case of `CCCC[C@H]1C(=O)N(C)[C@@H](CCCC)C(=O)N[C@@H](CC(C)C)C(=O)N[C@H](C(=O)NCC(N)=O)CSCC(=O)N[C@@H](Cc2ccc(O)cc2)C(=O)N(C)[C@@H](C)C(=O)N[C@@H](CC(N)=O)C(=O)N2CCC[C@H]2C(=O)N[C@@H](CNC(=O)C(=O)NCc2ccc(F)cc2)C(=O)N[C@@H](CC(C)C)C(=O)N2C[C@H](O)C[C@H]2C(=O)N[C@@H](Cc2c[nH]c3ccccc23)C(=O)N[C@@H](CCNC(=O)C(=O)NCc2ccc(F)cc2)C(=O)N[C@@H](Cc2cn(CC(=O)OC)c3ccccc23)C(=O)N1C` [Compound 2009] ({CH2CO}-Y[NMeA]NP[Dap](X3)L[Hyp]W[Dab](X3)[Trp(1-CH2CO2Me)][NMeNle][NMeNle]LCG-NH2; thioether N-14), the IC50 is reported as 1.2 nM.
Compound `CCCC[C@H]1C(=O)N(C)[C@@H](CCCC)C(=O)N[C@@H](CC(C)C)C(=O)N[C@H](C(=O)NCC(N)=O)CSCC(=O)N[C@@H](Cc2ccc(O)cc2)C(=O)N(C)[C@@H](C)C(=O)N[C@@H](CC(N)=O)C(=O)N2CCC[C@H]2C(=O)N[C@@H](CNC(=O)C(N)=O)C(=O)N[C@@H](CC(C)C)C(=O)N2C[C@H](O)C[C@H]2C(=O)N[C@@H](Cc2c[nH]c3ccccc23)C(=O)N[C@@H](CCNC(=O)C(N)=O)C(=O)N[C@@H](Cc2cn(CC(=O)OC)c3ccccc23)C(=O)N1C` [Compound 2006] ({CH2CO}-Y[NMeA]NP[Dap](Oxamoyl)L[Hyp]W[Dab](Oxamoyl)[Trp(1-CH2CO2Me)][NMeNle][NMeNle]LCG-NH2; thioether N-14) has an IC50 of 2.7 nM.
`CCCC[C@H]1C(=O)N(C)[C@@H](CCCC)C(=O)N[C@@H](CC(C)C)C(=O)N[C@H](C(=O)NCC(N)=O)CSCC(=O)N[C@@H](Cc2ccc(O)cc2)C(=O)N(C)[C@@H](C)C(=O)N[C@@H](CC(N)=O)C(=O)N2CCC[C@H]2C(=O)N[C@@H](CNC(=O)C(=O)OC)C(=O)N[C@@H](CC(C)C)C(=O)N2C[C@H](O)C[C@H]2C(=O)N[C@@H](Cc2c[nH]c3ccccc23)C(=O)N[C@@H](CCNC(=O)C(=O)OC)C(=O)N[C@@H](Cc2cn(CC(=O)OC)c3ccccc23)C(=O)N1C` [Compound 3001] ({CH2CO}-Y[NMeA]NP[Dap](Methoxyoxalyl)L[Hyp]W[Dab](Methoxyoxalyl)[Trp(1-CH2CO2Me)][NMeNle][NMeNle]LCG-NH2; thioether N-14) was tested, and the IC50 was 6.3 nM.
